Results as given in the OPERA property sets (Mansouri et al. 2018).
Where a SMILES comes first, the peptide text is derived from it.

`COC(=O)C(C)NP(=O)(OCC1C=CC(n2cc(C)c(=O)[nH]c2=O)O1)Oc1ccc(C#N)cc1` (stereo not given) showed a logP of 0.91.
In the case of `CC(C)CC(N)C(=O)NC(CC(C)C)C(=O)NCC(=O)NC(Cc1ccccc1)C(=O)O` (stereo not given) (H-LLGF-OH; configuration not given here), the logP is reported as -0.42.
For `CC(C)(C)[N+]([O-])=Cc1ccncc1`, the logP was 0.4.
In the case of `CCOC(=O)CCCn1cnc([N+](=O)[O-])n1`, the logP is reported as 0.42.
Compound `CC(C)C[C@H](NC(=O)[C@@H](NC(=O)[C@@H](N)CC(C)C)C(C)C)C(=O)O` (H-Leu-Val-Leu-OH) has a logP of -1.57.
Compound `COC(=O)C1=C(C)NC(C)=C(C(=O)OC)C1c1cccc2c1OCO2` has a logP of 3.46.
For `CC(=NNC(=O)c1ccccc1)c1cnccn1`, the logP was 1.9.
`CCc1c(O)c(=O)ccn1CCCO` showed a logP of -0.44.
For `CCCCOc1ccc(NC(=O)OCCN2CCCCC2)cc1`, the logP was 4.69.
In the case of `O=C(NO)C(=Cc1ccccc1)C(=O)NCc1ccc(F)cc1`, the logP is reported as 1.7.
`CCCCOc1cccc2nc(N)nc(N)c12` gave a logP of 2.81.
`Clc1cc(Oc2ccccc2)c(Cl)c(Cl)c1Cl` gave a logP of 6.31.
`Cc1cc2c(ccc3c(C)c(C)c(=O)oc32)o1` showed a logP of 3.27.
Compound `c1cc2cc3c(cc2cn1)OCO3` has a logP of 1.75.
Work on `Nc1cccc(Cn2cnc3ccccc32)c1` yielded a logP of 1.92.
In the case of `COc1ccc(C2Cc3c(cccc3C(F)(F)F)N(CCN(C)C)C(=O)C2O)cc1` (stereo not given), the logP is reported as 4.1.
For `Cn1cnc([N+](=O)[O-])c1S(N)(=O)=O`, the logP was -0.74.
Work on `CCOC(=O)c1ccc(N=NN(C)C(=O)OCOC(C)=O)cc1` yielded a logP of 3.44.
For `CCOC(=O)c1[nH]cc(-c2ccc(Cl)cc2)c1N1CCOCC1`, the logP was 3.9.
Work on `CCC1OC(Cn2cncn2)(c2ccc(Cl)cc2Cl)OC1C` (stereo not given) yielded a logP of 3.41.
`C[N+](C)([O-])CCC(c1ccccc1)c1ccccc1` gave a logP of 1.1.
For `CC(N)C(=O)NC(Cc1c[nH]c2ccccc12)C(=O)O` (stereo not given), the logP was -2.21.
`Cc1ccc(Cc2c[nH]cn2)c(C)c1` showed a logP of 2.7.
Work on `CCCC(=O)c1ccncc1` yielded a logP of 1.4.
Work on `Cc1cccc(C)c1-c1cnc[nH]1` yielded a logP of 2.38.
Work on `COC(=O)c1ccc(Cl)cc1[N+](=O)[O-]` yielded a logP of 2.35.
For `Cc1ccc(CO)c(C=NNC(=O)c2ccco2)c1O`, the logP was 2.67.
`Cc1c(C)c2cc3ccoc3cc2oc1=O` showed a logP of 2.77.
Work on `NC(Cc1ccccc1)C(=O)NC(Cc1ccccc1)C(=O)NC(Cc1ccccc1)C(=O)O` (stereo not drawn) (H-Phe-Phe-Phe-OH; configuration not given here) yielded a logP of -0.02.
For `O=c1cc(-c2ccccc2Cl)oc2ccc(Cl)cc12`, the logP was 4.09.
Compound `CCN(CC)c1ccc(NC(=O)N(C)OC)cc1` has a logP of 2.33.
For `Cc1ccccc1Nc1ccncc1S(=O)(=O)NC(=O)NC1CCCCC1`, the logP was 4.35.
With `C=C1C=CCC(C)=CCC1` the logP was 4.17.
Work on `Cc1cc2c(nn1)-c1ccccc1C2=O` yielded a logP of 1.58.
Work on `O=C(O)c1ccccc1C(c1ccc(O)cc1)c1ccc(O)cc1` yielded a logP of 2.61.
Work on `CCOP(=O)(Oc1ccc(C#N)cc1)c1ccccc1` (stereo not given) yielded a logP of 2.44.
`ClCC1(C(Cl)Cl)C2CC(Cl)C1(C(Cl)Cl)CC2(Cl)Cl` (stereo not given) showed a logP of 5.75.
Work on `O=C(Nc1ccccc1C(=O)O)c1ccccc1O` yielded a logP of 3.94.
Work on `O=C1CN=C(c2ccccc2F)c2cc(Br)ccc2N1` yielded a logP of 2.98.
`CCCCC(=O)C(CCCCOc1cccc(F)c1)n1cncn1` (stereo not given) showed a logP of 3.42.
Compound `O=C(NCCNCC(O)COc1ccc(CCOCCOCC2CC2)cc1)N1CCC(O)CC1` (stereo not given) has a logP of 1.
For `CC(NC(=O)C(N)Cc1c[nH]c2ccccc12)C(=O)NC(C(N)=O)C(C)C` (stereo not drawn) (H-Trp-Ala-Val-NH2; configuration not given here), the logP was 0.4.
With `COc1ccccc1OCCN(C)C` the logP was 1.42.
Work on `CC1=C2C3OC(=O)C(C)C3C(O)C(O)C2(C)C=CC1=O` (stereo not given) yielded a logP of -0.7.
For `CCOC(=O)CCCn1ccnc1[N+](=O)[O-]`, the logP was 0.69.
For `Clc1cc(Cl)c2c(c1)Oc1c(ccc(Cl)c1Cl)O2`, the logP was 6.43.
`CC(Nc1ccc([N+](=O)[O-])cc1[N+](=O)[O-])C(=O)O` (stereo not given) showed a logP of 2.09.
`ClCC1(C(Cl)Cl)C2CC(Cl)(Cl)C1(C(Cl)Cl)C(Cl)C2(Cl)Cl` (stereo not given) gave a logP of 6.64.
Work on `CC(C)(O)C1CCC2(C)CCCC(O)(CO)C2C1` (stereo not given) yielded a logP of 1.54.
For `CSC(=S)N1CCCCC1`, the logP was 1.7.
